Each block holds one compound with its values, some of them ahead of it. Calls of active or inactive are those of the source. No cut-off for these calls is given here.
What was measured:
Melanocortin receptor 4 [1] = target: T1, Melanocortin receptor 4 (Homo sapiens, UniProt P32245); experiment: Displacement of [125I]NDP-MSH from MC4R receptor in HEK293 cells; format: cell-based
Melanocortin receptor 4 [2] = target: T1, Melanocortin receptor 4; experiment: Antagonist activity at human MC4 receptor in HEK293 cells assessed as inhibition of alpha-MSH stimulated cAMP production
Mus musculus [3] = experiment: Increase in body weight in LLC-tumor bearing C57BL/6J mouse at 3 mg/kg, ip; format: functional, organism-based; parameters: dose 3 mg/kg
in vivo [4] = details: C57BL/6J, mouse, brain, iv, 5 mg/kg
Mus musculus [5] = experiment: Increase in lean body mass in LLC-tumor bearing C57BL/6J mouse at 3 mg/kg, ip; format: functional; details: route intraperitoneal
in vivo [6] = details: C57BL/6J, mouse, plasma, iv, 5 mg/kg
Mus musculus [7] = experiment: Increase in lean body mass in LLC-tumor bearing C57BL/6J mouse at 9 mg/kg, ip; format: functional; details: route intraperitoneal
in vivo [8] = details: C57BL/6J, mouse, brain, iv, 5 mg/kg; remark: listed apart in the source
Mus musculus [9] = experiment: Increase in fat mass in LLC-tumor bearing C57BL/6J mouse at 3 mg/kg, ip; format: functional; details: route intraperitoneal
in vivo [10] = details: C57BL/6J, mouse, po, 10 mg/kg
Mus musculus [11] = experiment: Increase in fat mass in LLC-tumor bearing C57BL/6J mouse at 9 mg/kg, ip; format: functional; details: route intraperitoneal
Mus musculus [12] = experiment: Increase in body weight in LLC-tumor bearing C57BL/6J mouse at 9 mg/kg, ip; format: functional, organism-based; parameters: dose 9 mg/kg
Melanocortin receptor 3 = Melanocortin receptor 3 (Homo sapiens, UniProt P41968); experiment: Displacement of [125I]NDP-MSH from MC3R receptor in HEK293 cells; format: cell-based
Chain of Melanocortin receptor 3 (P41968 whole entry): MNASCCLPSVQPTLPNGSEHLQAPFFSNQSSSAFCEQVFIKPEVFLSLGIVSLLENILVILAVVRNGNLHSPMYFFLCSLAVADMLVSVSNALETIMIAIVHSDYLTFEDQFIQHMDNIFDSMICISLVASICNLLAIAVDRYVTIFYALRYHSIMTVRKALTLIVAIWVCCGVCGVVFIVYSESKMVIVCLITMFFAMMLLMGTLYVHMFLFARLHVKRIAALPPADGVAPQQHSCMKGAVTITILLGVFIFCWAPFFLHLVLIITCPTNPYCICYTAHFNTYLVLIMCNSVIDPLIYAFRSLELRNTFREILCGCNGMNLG

[13] = target: Melanocyte-stimulating hormone receptor (Homo sapiens) (UniProt Q01726); experiment: Displacement of [125I]NDP-MSH from MC1R receptor in HEK293 cells; format: cell-based
Chain of Melanocyte-stimulating hormone receptor (Homo sapiens) (Q01726 whole entry, looked up): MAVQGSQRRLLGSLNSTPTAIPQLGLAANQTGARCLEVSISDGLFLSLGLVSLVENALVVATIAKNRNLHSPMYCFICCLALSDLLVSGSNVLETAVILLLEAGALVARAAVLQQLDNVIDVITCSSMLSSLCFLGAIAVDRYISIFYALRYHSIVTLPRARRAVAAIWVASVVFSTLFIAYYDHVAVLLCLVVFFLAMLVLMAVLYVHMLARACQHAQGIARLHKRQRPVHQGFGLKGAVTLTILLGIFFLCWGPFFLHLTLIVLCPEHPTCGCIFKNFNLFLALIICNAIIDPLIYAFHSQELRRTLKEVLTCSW

in vivo [14] = details: C57BL/6J, mouse, brain, iv, 5 mg/kg; remark: listed apart in the source
in vivo [15] = details: C57BL/6J, mouse, po, 10 mg/kg; remark: listed apart in the source
in vivo [16] = details: C57BL/6J, mouse, po, 10 mg/kg; remark: listed apart in the source
Melanocortin receptor 5 = Melanocortin receptor 5 (Homo sapiens, UniProt P33032); experiment: Displacement of [125I]NDP-MSH from MC5R receptor in HEK293 cells; format: cell-based
Chain of Melanocortin receptor 5 (P33032 whole entry): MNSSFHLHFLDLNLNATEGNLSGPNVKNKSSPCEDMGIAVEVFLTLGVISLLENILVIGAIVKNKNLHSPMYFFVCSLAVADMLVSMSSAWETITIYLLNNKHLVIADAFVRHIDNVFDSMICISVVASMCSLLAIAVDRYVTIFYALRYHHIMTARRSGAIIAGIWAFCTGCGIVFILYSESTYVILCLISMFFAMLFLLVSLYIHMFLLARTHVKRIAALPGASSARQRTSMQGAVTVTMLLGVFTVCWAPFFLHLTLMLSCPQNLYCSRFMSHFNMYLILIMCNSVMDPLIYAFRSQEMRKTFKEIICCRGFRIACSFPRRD

Mus musculus [17] = experiment: Increase in food intake in LLC-tumor bearing C57BL/6J mouse at 3 mg/kg, ip relative to control; format: functional, organism-based; parameters: dose 3 mg/kg
Melanocortin receptor 4 [18] = target: Melanocortin receptor 4 (Mus musculus, UniProt P56450); experiment: Binding affinity to C57BL/6J mouse MC4 receptor
Chain of Melanocortin receptor 4 (Mus musculus, UniProt P56450) (P56450 whole entry): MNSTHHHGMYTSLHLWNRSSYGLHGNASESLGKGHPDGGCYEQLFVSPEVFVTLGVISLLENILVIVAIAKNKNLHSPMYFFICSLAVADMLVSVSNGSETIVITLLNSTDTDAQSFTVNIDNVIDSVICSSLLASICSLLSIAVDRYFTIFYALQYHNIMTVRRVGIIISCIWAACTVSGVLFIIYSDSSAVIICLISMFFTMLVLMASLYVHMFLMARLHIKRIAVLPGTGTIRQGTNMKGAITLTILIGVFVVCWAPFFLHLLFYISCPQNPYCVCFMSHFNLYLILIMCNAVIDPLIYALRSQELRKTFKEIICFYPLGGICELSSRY

in vivo [19] = details: C57BL/6J, mouse, iv, 5 mg/kg
in vivo [20] = details: C57BL/6J, mouse, plasma, iv, 5 mg/kg; remark: listed apart in the source
[21] = target: Growth hormone secretagogue receptor type 1 (Homo sapiens, UniProt Q92847); experiment: Agonist activity at ghrelin receptor; format: functional
Chain of Growth hormone secretagogue receptor type 1 (Q92847 whole entry): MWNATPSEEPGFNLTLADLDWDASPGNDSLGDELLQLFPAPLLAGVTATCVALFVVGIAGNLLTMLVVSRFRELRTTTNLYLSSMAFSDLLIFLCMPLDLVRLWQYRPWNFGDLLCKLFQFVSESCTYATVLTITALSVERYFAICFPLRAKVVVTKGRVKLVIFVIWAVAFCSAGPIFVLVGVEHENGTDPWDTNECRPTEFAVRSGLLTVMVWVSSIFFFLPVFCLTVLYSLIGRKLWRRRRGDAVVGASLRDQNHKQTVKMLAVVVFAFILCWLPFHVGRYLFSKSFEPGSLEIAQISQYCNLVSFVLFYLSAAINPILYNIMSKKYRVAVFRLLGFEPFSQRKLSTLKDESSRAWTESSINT

in vivo [22] = details: C57BL/6J, mouse, iv, 5 mg/kg; remark: listed apart in the source
Mus musculus [23] = experiment: Increase in food intake in LLC-tumor bearing C57BL/6J mouse at 9 mg/kg, ip relative to control; format: functional, organism-based; parameters: dose 9 mg/kg
Melanocortin receptor 4 [24] = target: Melanocortin receptor 4 (Rattus norvegicus, UniProt P70596); experiment: Binding affinity to rat MC4 receptor
Chain of Melanocortin receptor 4 (Rattus norvegicus, UniProt P70596) (P70596 whole entry): as the sequence (P56450 whole entry) above, with Y21H, P36S, S199T, T239A, S329P, S330G counted along it

in vivo [25] = details: C57BL/6J, mouse, plasma, po, 10 mg/kg
in vivo [26] = details: C57BL/6J, mouse, brain, iv, 5 mg/kg; remark: listed apart in the source
physchem = details: octanol/water
[27] = AUC (0 to 24 hrs) in brain of C57BL/6J mouse at 5 mg/kg, iv; format: ADME, organism-based; parameters: time < 24 hr, dose 5 mg/kg, route intravenous

T1 sequence (P32245 whole entry): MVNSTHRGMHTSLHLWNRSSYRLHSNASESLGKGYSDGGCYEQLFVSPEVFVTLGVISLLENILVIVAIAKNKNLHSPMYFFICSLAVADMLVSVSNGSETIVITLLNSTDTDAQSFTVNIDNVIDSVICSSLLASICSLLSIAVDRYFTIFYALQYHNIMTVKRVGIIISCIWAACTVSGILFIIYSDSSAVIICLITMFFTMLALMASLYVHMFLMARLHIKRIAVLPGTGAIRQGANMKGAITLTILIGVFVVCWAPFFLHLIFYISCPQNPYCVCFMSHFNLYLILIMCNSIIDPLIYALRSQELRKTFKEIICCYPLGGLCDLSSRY

Ki (Melanocortin receptor 4 [1]): 1 nM | Activity (Melanocortin receptor 4 [2]): Dose-dependent effect
SMILES: CC(C)C[C@H](N)c1cc(C(F)(F)F)ccc1N1CCN(C(=O)[C@@H](Cc2ccc(Cl)cc2Cl)NC(=O)CCN)CC1

Ki (Melanocortin receptor 4 [1]): 26 nM | Activity (Melanocortin receptor 4 [2]): Dose-dependent effect
SMILES: CC(=O)N[C@H](Cc1ccc(Cl)cc1Cl)C(=O)N1CCN(c2ccc(F)cc2[C@H](N)CC(C)C)CC1

Ki (Melanocortin receptor 4 [1]): 7.1 nM | Activity (Melanocortin receptor 4 [2]): Dose-dependent effect
SMILES: CC(C)C[C@@H](N)c1cccc(F)c1N1CCN(C(=O)[C@@H](Cc2ccc(Cl)cc2Cl)NC(=O)CN)CC1

Activity (Melanocortin receptor 4 [2]): Dose-dependent effect
SMILES: CC(C)C[C@H](N)c1cccc(F)c1N1CCN(C(=O)[C@@H](Cc2ccc(Cl)cc2Cl)N2CCCC2=O)CC1

Ki (Melanocortin receptor 4 [1]): 39 nM | Activity (Melanocortin receptor 4 [2]): Dose-dependent effect
SMILES: CC(C)C[C@H](N)c1cc(C(F)(F)F)ccc1N1CCN(C(=O)[C@H](N)Cc2ccc(Cl)cc2Cl)CC1

Ki (Melanocortin receptor 4 [1]): 0.8 nM | Activity (Melanocortin receptor 4 [2]): Dose-dependent effect
SMILES: CC(C)C[C@H](N)c1cc(C(F)(F)F)ccc1N1CCN(C(=O)[C@@H](Cc2ccc(Cl)cc2Cl)NC(=O)C2CCNCC2)CC1

Ki (Melanocortin receptor 4 [1]): 2.5 nM | Activity (Melanocortin receptor 4 [2]): Dose-dependent effect
SMILES: CC(C)C[C@H](N)c1cccc(C(F)(F)F)c1N1CCN(C(=O)[C@@H](Cc2ccc(Cl)cc2Cl)NC(=O)CCN)CC1

Ki (Melanocortin receptor 4 [1]): 29 nM | Activity (Melanocortin receptor 4 [2]): Dose-dependent effect
SMILES: CC(C)C[C@@H](N)c1cccc(C(F)(F)F)c1N1CCN(C(=O)[C@@H](Cc2ccc(Cl)cc2Cl)NC(=O)CCN)CC1

Ki (Melanocortin receptor 4 [1]): 6 nM | Activity (Melanocortin receptor 4 [2]): Dose-dependent effect
SMILES: CC(=O)N[C@H](Cc1ccc(Cl)cc1Cl)C(=O)N1CCN(c2c(F)cccc2[C@H](N)CC(C)C)CC1

Ki (Melanocortin receptor 4 [1]): 38 nM | Activity (Melanocortin receptor 4 [2]): Dose-dependent effect
SMILES: CC(C)C[C@H](N)c1ccccc1N1CCN(C(=O)[C@@H](Cc2ccc(Cl)cc2)N2CCCC2=O)CC1

Ki (Melanocortin receptor 4 [1]): 8.8 nM | Activity (Melanocortin receptor 4 [2]): Dose-dependent effect
SMILES: CC(C)C[C@H](N)c1cc(C(F)(F)F)ccc1N1CCN(C(=O)[C@H](Cc2ccc(Cl)cc2)N2CCCC2=O)CC1

Ki (Melanocortin receptor 4 [1]): 10 nM | Activity (Melanocortin receptor 4 [2]): Dose-dependent effect
SMILES: CC(C)C[C@@H](N)c1cc(C(F)(F)F)ccc1N1CCN(C(=O)[C@@H](Cc2ccc(Cl)cc2Cl)NC(=O)CCN)CC1

Ki (Melanocortin receptor 4 [1]): 47 nM | Activity (Melanocortin receptor 4 [2]): Dose-dependent effect
SMILES: CC(=O)N[C@H](Cc1ccc(Cl)cc1Cl)C(=O)N1CCN(c2c([C@H](N)CC(C)C)cccc2C(F)(F)F)CC1

Kp at 1 h (in vivo [4]): 1.27 | AUC (in vivo [6]): 2680 ng·h/mL | concentration at 1 h (in vivo [8]): 484 ng/g | bioavailability (in vivo [10]): 42.4% | Ki (Melanocortin receptor 4 [1]): 11 nM | Ki (Melanocortin receptor 3): 1800 nM | Activity [13]: 31% | IC50 (Melanocortin receptor 4 [2]): 510 nM | concentration at 4 h (in vivo [14]): 154 ng/g | Cmax (in vivo [15]): 270 ng/mL | Tmax (in vivo [16]): 0.5 h | Ki (Melanocortin receptor 5): 990 nM | Ki (Melanocortin receptor 4 [18]): 5.5 nM | half-life (in vivo [19]): 2.2 h | clearance (in vivo [20]): 31 mL/min/kg | EC50 [21]: 4100 nM | Intrinsic activity [21]: 47% | Vd (in vivo [22]): 5.8 L/kg | Ki (Melanocortin receptor 4 [24]): 9.1 nM | AUC (in vivo [25]): 2270 ng·h/mL | Kp at 4 h (in vivo [26]): 0.81 | logD (physchem): 3.1
SMILES: CC(C)C[C@H](N)c1cc(C(F)(F)F)ccc1N1CCN(C(=O)[C@@H](Cc2ccc(Cl)cc2)N2CCCC2=O)CC1
Activity (Mus musculus [3]): Active | Activity (Mus musculus [5]): 20% | Activity (Mus musculus [7]): 20% | Activity (Mus musculus [9]): 10% | Activity (Mus musculus [11]): 10% | Activity (Mus musculus [12]): Active | Activity (Mus musculus [17]): Active | Activity (Mus musculus [23]): Active

Ki (Melanocortin receptor 4 [1]): 0.8 nM | Ki (Melanocortin receptor 3): 450 nM | Activity (Melanocortin receptor 4 [2]): Dose-dependent effect | Ki (Melanocortin receptor 5): 240 nM
SMILES: CC(C)C[C@H](N)c1cccc(F)c1N1CCN(C(=O)[C@@H](Cc2ccc(Cl)cc2Cl)NC(=O)CCN)CC1

Ki (Melanocortin receptor 4 [1]): 1.8 nM | Activity (Melanocortin receptor 4 [2]): Dose-dependent effect
SMILES: CC(C)C[C@H](N)c1cc(C(F)(F)F)ccc1N1CCN(C(=O)[C@@H](Cc2ccc(Cl)cc2Cl)NC(=O)CN)CC1

Ki (Melanocortin receptor 4 [1]): 3.3 nM | Activity (Melanocortin receptor 4 [2]): Dose-dependent effect
SMILES: CC(C)C[C@H](N)c1cccc(F)c1N1CCN(C(=O)[C@@H](Cc2ccc(Cl)cc2Cl)NC(=O)CN)CC1

Ki (Melanocortin receptor 4 [1]): 3.3 nM | Activity (Melanocortin receptor 4 [2]): Dose-dependent effect
SMILES: CC(C)C[C@H](N)c1cccc(C(F)(F)F)c1N1CCN(C(=O)[C@@H](Cc2ccc(Cl)cc2Cl)NC(=O)CN)CC1

Kp at 1 h (in vivo [4]): 0.07 | AUC (in vivo [6]): 3940 ng·h/mL | concentration at 1 h (in vivo [8]): 41 ng/g | bioavailability (in vivo [10]): 19.4% | Ki (Melanocortin receptor 4 [1]): 4.5 nM | Ki (Melanocortin receptor 3): 950 nM | Activity [13]: 23% | IC50 (Melanocortin receptor 4 [2]): 210 nM | concentration at 4 h (in vivo [14]): 46 ng/g | Cmax (in vivo [15]): 214 ng/mL | Tmax (in vivo [16]): 0.5 h | Ki (Melanocortin receptor 5): 360 nM | half-life (in vivo [19]): 7.7 h | clearance (in vivo [20]): 20 mL/min/kg | Vd (in vivo [22]): 13 L/kg | AUC(0-t) at 24 h [27]: 1260 ng/g.hr | AUC (in vivo [25]): 1530 ng·h/mL | Kp at 4 h (in vivo [26]): 0.24 | logD (physchem): 2.8
SMILES: CC(C)C[C@H](N)c1cc(C(F)(F)F)ccc1N1CCN(C(=O)[C@@H](Cc2ccc(Cl)cc2Cl)N2CCNCC2=O)CC1

Ki (Melanocortin receptor 4 [1]): 1.8 nM | Activity (Melanocortin receptor 4 [2]): Dose-dependent effect
SMILES: CC(=O)N[C@H](Cc1ccc(Cl)cc1Cl)C(=O)N1CCN(c2ccc(C(F)(F)F)cc2[C@@H](N)CC(C)C)CC1

Ki (Melanocortin receptor 4 [1]): 2.3 nM | Activity (Melanocortin receptor 4 [2]): Dose-dependent effect
SMILES: CC(C)C[C@@H](N)c1cccc(F)c1N1CCN(C(=O)[C@@H](Cc2ccc(Cl)cc2Cl)NC(=O)CCN)CC1

Ki (Melanocortin receptor 4 [1]): 49 nM | Activity (Melanocortin receptor 4 [2]): Dose-dependent effect
SMILES: CC(C)C[C@@H](N)c1cccc(C(F)(F)F)c1N1CCN(C(=O)[C@@H](Cc2ccc(Cl)cc2Cl)NC(=O)CN)CC1

Activity [13]: 21%
SMILES: CC(C)C[C@H](N)c1cc(C(F)(F)F)ccc1N1CCN(C(=O)[C@@H](Cc2ccc(Cl)cc2Cl)N2CCCC2=O)CC1

Ki (Melanocortin receptor 4 [1]): 7.5 nM | Activity (Melanocortin receptor 4 [2]): Dose-dependent effect
SMILES: CC(=O)N[C@H](Cc1ccc(Cl)cc1Cl)C(=O)N1CCN(c2c(F)cccc2[C@@H](N)CC(C)C)CC1
